“Also recorded” adds a separate entry of the source. Read-outs that look alike come from different tables or passages of the source.
Tests used:
human leptin [1] = target: T1, human leptin (Homo sapiens, UniProt P41159); assay: IC50 for human CRP against human leptin (125I-leptin binding to OBR-expressing HEK293 cells); settings: in the presence of about 2 ng/ml human leptin
Experimental: 4. Measurement of IC50 for human CRP against human leptin: Human leptin was iodinated with Na^125I using the lodogen method. Briefly, 15 μg of human leptin in 100 mM Phosphate buffer pH 7.5 were incubated with 1 mCi of carrier-free Na^125I (2200 Ci/mmol) in a glass tube containing 50 μg Iodogen. After 10 minute incubation at room temperature, the reaction was stopped with 100 μl 0.1% trifluoroacetic acid (TFA). The reaction mixture was immediately purified by reverse-phase HPLC. The separation employed a 5 minute isocratic step at 20% eluant B in A, followed by two consecutive 30 minute linear gradients from 20 to 50%, then from 50 to 60% eluant B in A (where eluant A is water containing 0.1% TFA and eluant B is acetonitrile containing 0.1% TFA) at a flow rate of 1.5 ml/min. The ^125I-labeled leptin (˜2 ng/ml) was pre-incubated with various concentrations of human CRP in 1 ml of μ-MEM for 30 minute before added to the OBR-expressing HEK293 cells. The incubation would last for 3 hours at 4° C. before the media was aspirated and the cells were dissolved in 0.1N NaOH for scintillation counting.
To examine if human CRP interferes with the binding of human leptin to its receptors, we used a HEK293 cell line stably transfected with the long-form human leptin receptor, OB-Rb. The characterization of this cell line has been reported in earlier studies. M. Friedman-Einat et al., 2003, Regul. Pept. […]

mouse leptin = mouse leptin (Mus musculus, UniProt P41160); assay: IC50 for human CRP against mouse leptin (leptin binding to OB-Rb HEK293 cells); settings: in the presence of about 2 ng/ml mouse leptin
mouse leptin, sequence (P41160 22-167): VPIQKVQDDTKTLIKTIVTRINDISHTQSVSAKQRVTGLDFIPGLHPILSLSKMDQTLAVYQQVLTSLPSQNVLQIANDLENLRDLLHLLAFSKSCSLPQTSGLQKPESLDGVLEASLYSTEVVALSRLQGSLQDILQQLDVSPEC

[2] = tested on: mouse leptin-induced STAT3 activation; assay: Leptin-induced STAT3 tyrosine phosphorylation in HEK293 cells expressing OB-Rb, mouse leptin; assay type: cell-based; settings: murine leptin 2 nM
Experimental: (§1) 2. Signaling Studies: A HEK293 cell line stably expressing the human long-form receptor, OB-Rb (M. Friedman-Einat et al., 2003, Regul. Pept. 111, 77) was serum starved for 2-h before addition of leptin and CRP. Leptin (SEQ ID NO:4), in the presence or absence of C-reactive proteins, was pre-incubated in μ-MEM for 30 minutes at 37° C. before applied to the cells. After a 30-incubation with leptin (SEQ ID NO:4), the cells were harvested in a previously described protein lysis buffer. A. Z. Zhao et al., 1997, Proc. Natl. Acad. Sci. U.S.A. 94, 322. The protein extract was subjected to a western blot assay with an anti-phospho-STAT3 specific antibody (Cell Signaling, Beverly, Mass.). For studies involving the primary hypothalamic neurons, the rat hypothalamus was surgically isolated right after euthanasia, and immediately placed in the DMEM for incubation with leptin in the presence or absence of CRP.
(§2) To determine if the interaction between CRP and leptin influences cellular actions of leptin, we assessed the ability of leptin to stimulate tyrosine phosphorylation of STAT3 and PI3-kinase activity in the presence of CRP in vitro.

[3] = tested on: human IL6-stimulated tyrosine phosphorylation of STAT3; assay: IL6-stimulated STAT3 phosphorylation in human primary hepatocytes (specificity control); assay type: cell-based
[4] = tested on: leptin signaling in rat primary hypothalamic neurons; assay: Leptin signaling (phospho-STAT3 and PI3-kinase assays) in rat primary hypothalamic neurons; assay type: cell-based; settings: human leptin, rat primary hypothalamic ex-plants
Experimental: as §1
Previous studies have reported a requirement of both JAK-STAT and PI3-kinase pathways in mediating leptin signaling within the hypothalamus. C. Vaisse et al., 1996, Nat. Genet. 14, 95; A. Z. Zhao et al., 2002, Nat. Neurosci. 5, 727; K. D. Niswender et al., 2001, Nature 413, 794. The effects of human CRP on leptin signaling in rat primary hypothalamic ex-plants were also tested (FIG. 4D).

[5] = Serum levels of infused human CRP and human leptin in ob/ob mice (ELISA); assay type: in vivo, mouse
Experimental: (§3) 3(b) Assessment of serum leptin insulin, and CRP: Human- and mouse-leptin concentrations were measured with the ELISA kit from CHEMICON (Temecular, Calif.) and R&D Systems (Minneapolis, Minn.), respectively, according to the instructions of the manufacturer. Serum mouse insulin concentrations were determined with an ELISA assay (LINCO Research, St. Charles, Mo.). Human CRP concentrations were also evaluated with an ELISA kit (Alpha Diagnostics International, San Antonio, Tex.).

[6] = tested on: leptin-induced tyrosine phosphorylation of STAT3; assay: Leptin-induced STAT3 tyrosine phosphorylation in HEK293 cells expressing OB-Rb (western blot), human leptin; assay type: cell-based; settings: for effect on leptin-induced tyrosine phosphorylation of STAT3: human leptin 2 nM, protein pre-incubated with leptin, HEK293 OB-Rb cells
Experimental: as §1, §2

human leptin [7] = target: T1, human leptin; assay: Immunoprecipitation of human CRP with human leptin; assay type: binding; settings: leptin/CRP mixture and human serum
Experimental: Direct binding of […] and leptin in an immunoprecipitation assay was determined. Rat CRP was purified from fresh rat serum to >95% employing a previously established affinity-purification protocol. J. Tseng et al., 1988, Mol. Immunol. 25, 679. This purity is very similar to the human CRP preparation obtained from a commercial source (CHEMICON International). The purified human- and rat-CRP proteins were pre-mixed with recombinant human and mouse leptin, respectively, before addition of specific antibodies against human- and mouse-leptin. The concentrations of CRP and leptin in the precipitation reaction were all within the physiological ranges (M. B. Schulze et al., 2004, Diabetes Care 27, 889; T. Kazumi et al., 2003, Metabolism 52, 1113).
In parallel experiments, recombinant leptin was also pre-mixed with human- or rat serum to allow for potential direct interactions prior to immunoprecipitation. The precipitation pellets obtained were subjected to western blot assays with specific anti-CRP antibodies. […] Because of the similarities between rat CRP and human CRP in the binding to leptin and of our main interest in the relevance to human obesity, focus was placed on potential functional effects of human CRP in the subsequent experiments.

ob/ob mice = assay: Infusion of human CRP and/or human leptin by osmotic pumps into ob/ob mice; assay type: in vivo, mouse; settings: for body weight / food-intake: human CRP alone, without co-infusion of leptin; for effect on leptin-regulated body weight / effect on leptin-regulated food-intake: 6 days
Experimental: 3(a). In vivo assessment of CRP functions: The micro-osmotic pumps (#1007D, DURECT, Cupertino, Calif.) were subcutaneously imbedded in the ob/ob or wild-type mice according to the instructions of the manufacturer. The osmotic pumps were pre-filled with saline, CRP, leptin or leptin plus CRP. Food-intake (24-h), body weight, and body temperature were monitored daily post-surgery. Blood glucose concentrations were measured from the tail-vein blood samples right before and at the end of infusion with a Precision Plus glucose meter (Medisense, Abbot Park, Ill.).
as §3
3(c) Measurement of serum- and tissue-triglycerides: Serum- and tissue-triglycerides were determined with the protocols described in J. N. Huan et al., 2003, J. Biol. Chem. 278, 45638. […]

[8] = tested on: insulin-stimulated PI3-kinase; assay: Insulin-stimulated PI3-kinase activity in differentiated 3T3-L1 adipocytes (specificity control); assay type: cell-based
[9] = human CRP high dosage 40 μg/day co-infused with human leptin
[10] = human CRP high dosage co-infused with leptin
[11] = human CRP low dosage 10 μg/day co-infused with human leptin

T1 sequence (P41159 22-167): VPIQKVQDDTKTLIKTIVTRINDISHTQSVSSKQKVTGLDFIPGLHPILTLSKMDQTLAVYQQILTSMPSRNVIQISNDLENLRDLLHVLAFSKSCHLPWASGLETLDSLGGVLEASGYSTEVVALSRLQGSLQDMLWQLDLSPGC

human CRP: human C-reactive protein preparation obtained from a commercial source (CHEMICON International)
IC50 of CRP for reduction of 125I-labeled human leptin binding to its receptors (human leptin [1]): approximately 80 ng/ml
IC50 of human CRP towards mouse leptin (mouse leptin): greater than 64 μg/ml
effect on mouse leptin-induced STAT3 phosphorylation [2]: less efficient in blocking the signaling capacity of mouse leptin; also recorded: unable to block leptin-induced STAT3 activation
effect on IL6-stimulated tyrosine phosphorylation of STAT3 [3]: did not suppress IL-6 induced activation of STAT3
effect on IL6-stimulated tyrosine phosphorylation of STAT3 ([3]; listed as Human CRP): does not affect human IL6-stimulated tyrosine phosphorylation of STAT3
effect on leptin signaling (phospho-STAT3 and PI3-kinase) [4]: inhibited leptin signaling in primary hypothalamic neurons
serum concentration of human CRP ([5]; end of infusion, human CRP 48 μg/day/mouse): 850 ± 100 ng/mL
serum concentrations of human CRP attained ([5]; human CRP infused at 10 or 40 μg/day): well within the physiological range observed in human plasma
calcium dependence of attenuation of leptin signaling ([6]; excess EGTA added to the incubation medium): requires the presence of calcium ions
effect on leptin-induced tyrosine phosphorylation of STAT3 [6]: attenuate the tyrosine-phosphorylation of STAT3; also recorded: Attenuating effects; also recorded: caused the reduction of leptin-stimulated STAT3 activation
effect on leptin-induced tyrosine phosphorylation of STAT3 ([6]; listed as Human CRP): suppressed the activation of STAT3 by leptin
direct binding to human leptin (immunoprecipitation with anti human-leptin, anti-CRP western blot) (human leptin [7]): could pull down human CRP
leptin-stimulated STAT3 activation in hypothalamic tissues (ob/ob mice; high dose CRP co-infused with leptin): blocked by co-infusion of CRP with leptin
body weight (ob/ob mice): did not affect food-intake or body weight
food-intake (ob/ob mice): did not affect food-intake or body weight
body weight (ob/ob mice; listed as CRP): does not influence food-intake and body-weight
food-intake (ob/ob mice; listed as CRP): does not influence food-intake and body-weight
effect on leptin-regulated body weight (ob/ob mice; [9]): completely blocked the actions of leptin to restrain appetite and induce weight loss; also recorded: completely blocked the effects of leptin
effect on leptin-regulated food-intake (ob/ob mice; [9]): completely blocked the actions of leptin to restrain appetite and induce weight loss; also recorded: completely blocked the effects of leptin
effect on leptin-regulated rectal temperature (ob/ob mice; human CRP high dosage co-infused with human leptin): attenuation of leptin-induced energy expenditure; also recorded: completely blocked the effects of leptin on rectal temperature
effect on leptin-induced change in blood glucose (ob/ob mice; [10]): blocked these effects of leptin; also recorded: completely blocked leptin-induced beneficial effects
effect on leptin-induced change in hepatic triglycerides (ob/ob mice; [10]): blocked these effects of leptin; also recorded: completely blocked leptin-induced beneficial effects
effect on leptin-induced change in serum insulin (ob/ob mice; [10]): blocked these effects of leptin; also recorded: completely blocked leptin-induced beneficial effects
effect on leptin-induced change in serum triglycerides (ob/ob mice; [10]): blocked these effects of leptin; also recorded: completely blocked leptin-induced beneficial effects
effect on leptin-regulated body weight (ob/ob mice; [11]): only partially attenuated these effects of human leptin; also recorded: only partially blocked leptin's effect
effect on leptin-regulated food-intake (ob/ob mice; [11]): only partially attenuated these effects of human leptin; also recorded: only partially blocked leptin's effect
effect on insulin-stimulated PI3-kinase activity [8]: did not suppress; also recorded: does not affect insulin-stimulated PI3-kinase activity
